For data set [1], the system named is PRODH expressing mammalian cell systems. Put plainly: UPRmt activation and mitohormesis induction in PRODH expressing mammalian cell systems. Conditions: all PRODH expressing mammalian cell systems studied to date. The class given is cell-based.
The target of data set [2] is T1, proline dehydrogenase (PRODH) (Homo sapiens, UniProt O43272).
T1 sequence (O43272 1-600): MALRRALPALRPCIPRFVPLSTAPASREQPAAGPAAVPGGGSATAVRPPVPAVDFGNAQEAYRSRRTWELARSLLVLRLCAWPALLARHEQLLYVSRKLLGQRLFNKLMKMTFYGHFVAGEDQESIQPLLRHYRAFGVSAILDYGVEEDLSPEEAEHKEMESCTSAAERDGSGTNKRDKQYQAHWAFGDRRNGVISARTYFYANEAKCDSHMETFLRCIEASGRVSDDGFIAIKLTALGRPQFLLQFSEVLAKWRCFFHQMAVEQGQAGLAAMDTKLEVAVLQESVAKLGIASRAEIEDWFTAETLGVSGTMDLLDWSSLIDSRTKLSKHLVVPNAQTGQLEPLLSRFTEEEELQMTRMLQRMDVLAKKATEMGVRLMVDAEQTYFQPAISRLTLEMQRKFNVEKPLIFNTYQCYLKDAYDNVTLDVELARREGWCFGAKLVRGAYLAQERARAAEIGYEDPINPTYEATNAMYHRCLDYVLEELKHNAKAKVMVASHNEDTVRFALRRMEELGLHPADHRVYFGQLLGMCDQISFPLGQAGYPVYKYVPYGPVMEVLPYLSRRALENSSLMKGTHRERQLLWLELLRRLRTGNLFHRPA
Briefly: PRODH enzyme inhibition. It is filed as biochemical.

Data set [3] has as its system YME1L1. Briefly: Study B: brain YME1L1 in Htt-mut and wildtype mice. Conditions: 50 mg/kg/day oral N-PPG, 9 days. The class given is in vivo, mouse. The procedure:
(§1) For Study B, beginning at 5-weeks of age, four male and female Htt-mut mice (HT) were administered oral N-PPG at 50 mg/kg daily for 9 days, while four other age- and sex-matched Htt-mut mice (H) were given only daily saline. All Study A and B mice were sacrificed within 4 h of receiving their last treatment (week 7). […] Excised brains were snap frozen in liquid nitrogen for latter cryopulverization, extraction and analysis of total brain RNA and protein.

Data set [4] deals with HSP-60. Put plainly: Study A: brain chaperone HSP-60 transcripts by RT-PCR. The class given is in vivo. Conditions: single mouse brain, 200 mg/kg oral N-PPG, 9 days. The procedure: (§2) For Study A, beginning at 5 weeks of age, seven male and female mice (WT) were daily administered oral N-PPG over a graduated dose range of 50 mg/kg to 200 mg/kg for 9 days, while 4 other age- and sex-matched control mice (W) were given only daily saline.
as §1

The nature of data set [5]: Tolerability of oral N-PPG in Study A and B mice (body weight, vitality, side effects). It is filed as in vivo, mouse. The procedure: as §2, §1
Data set [6] has as its target T2, PRODH (Mus musculus, UniProt Q9WU79).
T2 construct: Western blots of whole brain lysates from wildtype B6/CBA mice; from tissue; R6/2 Htt-mut in B6/CBA background
T2 sequence (Q9WU79 1-599): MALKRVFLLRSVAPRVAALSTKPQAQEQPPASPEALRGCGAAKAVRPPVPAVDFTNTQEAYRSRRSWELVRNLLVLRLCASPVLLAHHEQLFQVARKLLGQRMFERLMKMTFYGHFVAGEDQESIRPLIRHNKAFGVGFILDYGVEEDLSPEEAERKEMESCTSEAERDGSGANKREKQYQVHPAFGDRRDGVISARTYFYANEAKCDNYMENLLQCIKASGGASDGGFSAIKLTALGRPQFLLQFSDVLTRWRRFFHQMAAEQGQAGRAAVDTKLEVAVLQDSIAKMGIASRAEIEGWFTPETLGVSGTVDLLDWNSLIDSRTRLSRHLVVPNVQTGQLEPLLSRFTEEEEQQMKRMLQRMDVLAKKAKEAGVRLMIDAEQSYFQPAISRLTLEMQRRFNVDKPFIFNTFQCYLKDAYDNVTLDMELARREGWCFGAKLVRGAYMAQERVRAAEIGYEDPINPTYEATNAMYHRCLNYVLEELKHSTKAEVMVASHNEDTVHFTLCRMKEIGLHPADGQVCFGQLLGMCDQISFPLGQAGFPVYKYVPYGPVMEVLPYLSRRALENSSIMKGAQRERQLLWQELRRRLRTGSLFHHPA
Put plainly: Study B: oral N-PPG in Htt-mut (R6/2) mice, whole brain PRODH protein. It is filed as in vivo. Conditions: HT mice, 50 mg/kg/day orally x 9 days vs saline, compared with wildtype. The procedure:
as §1

For data set [7], the target named is T2, PRODH. Put plainly: Study A: oral N-PPG in wildtype mice, whole brain PRODH protein (western blot) and mRNA. The class given is in vivo. Conditions: whole brain lysates. The procedure: as §2, §1
Data set [8] deals with Htt-mut mouse brain transcriptome. Put plainly: Study B: whole brain RNA transcriptome (RNAseq) of Htt-mut mice. The class given is in vivo. The procedure:
as §1

Data set [9] in a line: Brain penetration of orally administered N-PPG. Conditions: oral, repeated administration; inferred from brain UPRmt induction. It is filed as in vivo.
Data set [10] concerns YME1L1. Briefly: Study A: brain UPRmt protease YME1L1 mRNA and protein expression. It is filed as in vivo, mouse. The procedure: as §2, §1
Data set [11] relates to mouse brain transcriptome. Put plainly: Study A: whole brain transcriptome (RNAseq) and pathway analysis. The class given is in vivo. The procedure:
as §2, §1

Setting [12] is: over-representation analysis, FDR p<0.05.

The structures appear in SMILES notation. Entries after “also recorded” stand apart in the source; their conditions may differ.

On to `O=C1CCC(C(=O)O)O1` (centres unmarked) [5-oxo], for which the “activation of UPRmt and induction of mitohormesis” value (“activation” below) in data set [1] is given as “do not activate the UPRmt or induce mitohormesis”. For the same compound, in data set [2], the “PRODH enzyme inhibiting potency relative to N-PPG” value is given as “comparable”.

Take `C#CCNCC(=O)O` [N-PPG, N-propargylglycine]: in data set [3], the “brain YME1L1 in Htt-mut and wildtype mice” value is on record as “YME1L1 upregulation”. The “activation” value in [1] was “activate the mitochondrial unfolded protein response (UPRmt) and induce mitohormesis”. Also, the “induction of chaperone HSP-60 transcripts relative to housekeeping transcripts” value in data set [4] is on record as 1.7 fold. Moreover, the “health of mice at sacrifice (repeated body weight and vitality measurements)” value in [5] (all Study A and B mice, week 7) is “healthy and asymptomatic”. In data set [5] (mice, daily oral 50 to 200 mg/kg N-PPG, 9 days), the “systemic or neurologic side effects” value is recorded as “without any systemic or neurologic side effects; also recorded: without causing any adverse systemic or neurologic consequences”. Also, in [6], the “brain PRODH protein decay in Htt-mut mice” value was “partial mitochondrial PRODH protein degradation”. Besides, the “reduction in mean PRODH expression (PRODH signals normalized to β-actin or Rieske)” value in data set [7] (wildtype B6/CBA mice, oral 50 mg/kg N-PPG for nine days vs saline) is “at least 30%”. In addition, in [7] (wildtype mice, oral saline, 50, 100, 150 or 200 mg/kg N-PPG), the “normalized mean PRODH expression levels” value is recorded as “dose-dependent decline”. In data set [8] (HT mice, 50 mg/kg/day orally x 9 days vs untreated H, includes TH, DRD1, ADORA2A, 50 mg/kg/day), the “normalization of deranged whole brain transcriptome of Htt-mut mice” value was “partial-to complete normalization; also recorded: normalizes HT transcriptomes away from Htt-mut (H) and more toward wildtype (W)”. Moreover, in [8] (Study B, RNAseq, FDR p<0.05), the “differentially expressed genes between WT, HT, W and H brains” value was found to be 622 genes. Moreover, in [8] (four HT mice, 50 mg/kg/day orally x 9 days), the “Htt-mut treated mice with full transcriptome normalization” value is “one of the four”. Also, the “crossing of the blood-brain-barrier” value in data set [9] is on record as “capable of crossing the mammalian blood-brain-barrier”. For the same compound, in data set [10] (WT mice, 50 mg/kg dose, brain), the “mitochondrial YME1L1 mRNA and protein expression” value is recorded as “increased”. Besides, the “induction of mitochondrial protease YME1L1 transcripts relative to housekeeping transcripts” value in data set [10] (single mouse brain, 200 mg/kg oral N-PPG, 9 days, RT-PCR) turned out to be 1.4 fold. For the same compound, in data set [10] (wildtype mice, 50 mg/kg oral N-PPG vs saline, whole brain lysates, western blot), the “increase in mean YME1L1 expression (signals normalized to β-actin or Rieske)” value was ~ 40%. The “whole brain transcriptome pathway analysis” value in [11] (WT vs W mice, RNAseq, FDR p<0.05) is reported as “upregulation of pathways (GO, Reactome) specifically regulating neuronal cell functions”. In data set [11] (five WT (50 mg/kg, one 100 mg/kg, oral 9 days) vs four W brains, RNAseq), the “genes differentially expressed (p<0.05) between N-PPG treated and saline treated brains” value was found to be 1324 genes. The “upregulated genes among the differentially expressed genes” value in [11] (five WT vs four W brains, RNAseq) is recorded as 841 genes. Moreover, in [11] (setting [12]), the “Reactome neural pathways encoded by upregulated genes” value is given as 7 and the “enriched Gene Ontology (GO) pathways encoded by upregulated genes” value is recorded as 77.

Consider `O=C(O)C1NCCS1` (centres unmarked) [T2C], for which, in data set [1], the “activation” value is “do not activate the UPRmt or induce mitohormesis”. The “PRODH enzyme inhibiting potency relative to N-PPG” value in data set [2] is “comparable”.

Turning to `O=C(O)C1CCCO1` (centres unmarked) [THFA], the “activation” value in [1] is “do not activate the UPRmt or induce mitohormesis”. The “PRODH enzyme inhibiting potency relative to N-PPG” value in [2] is on record as “comparable”.

Source of the values: patent publication US12714686B2, “N-propargylglycine: a unique inhibitor of proline dehydrogenase with brain-enhancing mitohormesis properties capable of mitigating the pathogenesis of neurodegenerative disorders” (Buck Institute for Research on Aging, priority 2020, dated 2026).
